According to ChEMBL document CHEMBL1153154, “A single step purification for autolytic zinc proteinases” (Bioorg Med Chem Lett, 2010):
pKd: −log10 of the molar value.

Tests used:
Stromelysin-1 [1] = biological target: T1, Stromelysin-1 (Homo sapiens, UniProt P08254); assay: Binding affinity to stromelysin-1 catalytic domain
Stromelysin-1 [2] = biological target: T1, Stromelysin-1; assay: Binding affinity to stromelysin-1 catalytic domain expressed in Escherichia coli BL21 (DE3) by isothermal titration […]

T1 sequence (P08254 whole entry, the tested form may be a part): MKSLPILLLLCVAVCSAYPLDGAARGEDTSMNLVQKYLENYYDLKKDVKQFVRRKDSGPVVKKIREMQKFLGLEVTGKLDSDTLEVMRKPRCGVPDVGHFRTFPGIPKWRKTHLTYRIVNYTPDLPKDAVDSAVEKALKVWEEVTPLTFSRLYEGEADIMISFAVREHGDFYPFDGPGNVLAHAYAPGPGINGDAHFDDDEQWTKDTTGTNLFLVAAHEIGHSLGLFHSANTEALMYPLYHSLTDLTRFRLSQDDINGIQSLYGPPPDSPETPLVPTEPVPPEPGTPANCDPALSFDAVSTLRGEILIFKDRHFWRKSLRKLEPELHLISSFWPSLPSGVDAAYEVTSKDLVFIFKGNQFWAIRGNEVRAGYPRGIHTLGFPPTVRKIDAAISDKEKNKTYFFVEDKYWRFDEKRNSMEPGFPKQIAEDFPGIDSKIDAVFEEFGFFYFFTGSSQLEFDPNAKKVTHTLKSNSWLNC

pKd (Stromelysin-1 [1])	pKd (Stromelysin-1 [2])	Compound
6.95	7.37	COc1ccc(S(=O)(=O)N[C@@H](C(=O)NO)C(C)C)cc1
7.00	6.96	N#Cc1ccc(-c2ccc(OCCC(=O)NO)cc2)cc1
4.96	4.77	N#Cc1ccc(-c2ccc(OCCCCC(=O)NO)cc2)cc1
